ChEMBL document CHEMBL4043168, “The design and SAR of a novel series of 2-aminopyridine based LRRK2 inhibitors” (Bioorg Med Chem Lett, 2017)
≈ marks a conversion by molar mass, not a printed value.

Key:
[1] = biological target: Serine/threonine-protein kinase Nek4 (Homo sapiens) (UniProt P51957); test: Inhibition of NEK4 conserved Lys2 (DLKTQNVFLTR) in human PBMC at 0.1 uM
[2] = Aqueous solubility of the compound in pH 7.4; type: physicochemical; conditions: aqueous medium
[3] = biological target: Protein kinase C alpha type (Homo sapiens) (UniProt P17252); test: Inhibition of PKCa conserved Lys2 (DLKLDNVMLDSEGHIK) in human PBMC at 1 uM
[4] = biological target: Mitogen-activated protein kinase kinase kinase 2 (Homo sapiens) (UniProt Q9Y2U5); test: Inhibition of MAP3K2 conserved Lys2 (DIKGANILR) in human PBMC at 1 uM
[5] = biological target: 5'-AMP-activated protein kinase catalytic subunit alpha-1 (Homo sapiens) (UniProt Q13131); test: Inhibition of AMPKa1 labeling at conserved Lys1 (VAVKILNR) in human PBMC at 0.1 uM
[6] = biological target: T1, STE20-related kinase adapter protein alpha (Homo sapiens) (UniProt Q7RTN6); test: Inhibition of STLK5 activation loop (YSVKVLPWLSPEVLQQNLQGYDAK) in human PBMC at 0.1 uM
T1 sequence (whole entry): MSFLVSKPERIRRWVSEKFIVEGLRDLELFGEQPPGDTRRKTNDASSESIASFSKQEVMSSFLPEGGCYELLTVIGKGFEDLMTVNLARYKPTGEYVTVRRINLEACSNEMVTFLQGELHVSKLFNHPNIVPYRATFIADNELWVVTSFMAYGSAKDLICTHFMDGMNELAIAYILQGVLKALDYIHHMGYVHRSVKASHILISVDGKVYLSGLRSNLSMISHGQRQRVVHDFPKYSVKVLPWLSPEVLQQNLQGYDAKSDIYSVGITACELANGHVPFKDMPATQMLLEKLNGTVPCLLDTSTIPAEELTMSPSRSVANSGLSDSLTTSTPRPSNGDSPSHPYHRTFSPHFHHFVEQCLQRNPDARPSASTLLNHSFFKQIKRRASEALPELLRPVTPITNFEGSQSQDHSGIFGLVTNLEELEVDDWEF

[7] = biological target: Tyrosine-protein kinase ABL2 (Homo sapiens) (UniProt P42684); test: Inhibition of ARG labeling at […] (LMTGDTYTAHAGAKFPIK) in human PBMC at 1 uM
[8] = biological target: 5'-AMP-activated protein kinase catalytic subunit alpha-1 (Homo sapiens) (UniProt Q13131); test: Inhibition of AMPKa1 ATP loop (IGHYILGDTLGVGTFGKVK) in human PBMC at 1 uM; conditions: pooled result: one value given for 5 cell lines, strains, targets or settings
[9] = biological target: Ribosomal protein S6 kinase alpha-2 (Homo sapiens) (UniProt Q15349); test: Inhibition of RSK3 domain1 conserved Lys2 (DLKPENILLDEEGHIKITDFGLSK) in human PBMC at 0.1 uM
[10] = biological target: 1-phosphatidylinositol 3-phosphate 5-kinase (Homo sapiens) (UniProt Q9Y2I7); test: Inhibition of PIP5K3 ATP binding site (GGKSGAAFYATEDDRFILK) in human PBMC at 1 uM
[11] = biological target: T1, STE20-related kinase adapter protein alpha (Homo sapiens); test: Inhibition of STLK5 conserved Lys2 (SVKASHILISVDGK) in human PBMC at 1 uM
[12] = biological target: Tyrosine-protein kinase ABL1 (Homo sapiens) (UniProt P00519); test: Inhibition of ABL labeling at activation Loop (LMTGDTYTAHAGAKFPIK) in human PBMC at 0.1 uM
[13] = biological target: Cyclin-dependent kinase 11B (Homo sapiens) (UniProt P21127); test: Inhibition of CDK11 labeling at conserved Lys2 (DLKPANILVMGEGPER) in human PBMC at 1 uM
[14] = biological target: Mitogen-activated protein kinase 12 (Homo sapiens) (UniProt P53778); test: Inhibition of p38g conserved Lys2 (DLKPGNLAVNEDCELK) in human PBMC at 0.1 uM
[15] = biological target: Mitogen-activated protein kinase kinase kinase 2 (Homo sapiens) (UniProt Q9Y2U5); test: Inhibition of MAP3K2 conserved Lys2 (DIKGANILR) in human PBMC at 0.1 uM
[16] = biological target: Tyrosine-protein kinase Lyn (Homo sapiens) (UniProt P07948); test: Inhibition of LYN activation Loop (EGAKFPIKWTAPEAINFGCFTIK) in human PBMC at 0.1 uM
[17] = biological target: PAN2-PAN3 deadenylation complex subunit PAN3 (Homo sapiens) (UniProt Q58A45); test: Inhibition of PAN3 Protein Kinase Domain (VMDPTKILITGK) in human PBMC at 1 uM
[18] = biological target: Serine/threonine-protein kinase Nek1 (Homo sapiens) (UniProt Q96PY6); test: Inhibition of NEK1 conserved Lys2 (DIKSQNIFLTK) in human PBMC at 0.1 uM
[19] = biological target: Calcium/calmodulin-dependent protein kinase type II subunit delta (Homo sapiens) (UniProt Q13557); test: Inhibition of CaMK2d labeling at conserved Lys2 (DLKPENLLLASK) in human PBMC at 0.1 uM
[20] = biological target: Tyrosine-protein kinase Fgr (Homo sapiens) (UniProt P09769); test: Inhibition of FGR conserved Lys1 (LIKDDEYNPCQGSKFPIK) in human PBMC at 0.1 uM
[21] = biological target: Serine/threonine-protein kinase B-raf (Homo sapiens) (UniProt P15056); test: Inhibition of BRAF labeling at conserved Lys2 (DLKSNNIFLHEDLTVK) in human PBMC at 0.1 uM
[22] = biological target: Serine/threonine-protein kinase 32C (Homo sapiens) (UniProt Q86UX6); test: Inhibition of YANK3 conserved Lys2 (DVKPDNILLDER) in human PBMC at 1 uM
[23] = biological target: Proto-oncogene tyrosine-protein kinase Src (Homo sapiens) (UniProt P12931); test: Inhibition of SRC ATP binding site (QGAKFPIKWTAPEAALYGR) in human PBMC at 0.1 uM
[24] = biological target: Mitogen-activated protein kinase kinase kinase 15 (Homo sapiens) (UniProt Q6ZN16); test: Inhibition of MAP3K15 conserved Lys1 (IAIKEIPER) in human PBMC at 1 uM
[25] = biological target: Phosphatidylinositol 5-phosphate 4-kinase type-2 gamma (Homo sapiens) (UniProt Q8TBX8); test: Inhibition of PIP4K2C ATP binding site (TLVIKEVSSEDIADMHSNLSNYHQYIVK) in human PBMC at 0.1 uM
[26] = Inhibition of GCK conserved Lys2 (DIKGANLLLTLQGDVK) in human PBMC at 1 uM
[27] = biological target: NUAK family SNF1-like kinase 2 (Homo sapiens) (UniProt Q9H093); test: Inhibition of NuaK2 conserved Lys1 (LVAIKSIR) in human PBMC at 1 uM
[28] = biological target: Cyclin-dependent kinase 2 (Homo sapiens) (UniProt P24941); test: Inhibition of CDK2 labeling at conserved Lys1 (LTGEVVALKK) in human PBMC at 1 uM

5'-AMP-activated protein kinase catalytic subunit alpha-1 (Homo sapiens), sequence (Q13131 whole entry, looked up, the tested form may be a part): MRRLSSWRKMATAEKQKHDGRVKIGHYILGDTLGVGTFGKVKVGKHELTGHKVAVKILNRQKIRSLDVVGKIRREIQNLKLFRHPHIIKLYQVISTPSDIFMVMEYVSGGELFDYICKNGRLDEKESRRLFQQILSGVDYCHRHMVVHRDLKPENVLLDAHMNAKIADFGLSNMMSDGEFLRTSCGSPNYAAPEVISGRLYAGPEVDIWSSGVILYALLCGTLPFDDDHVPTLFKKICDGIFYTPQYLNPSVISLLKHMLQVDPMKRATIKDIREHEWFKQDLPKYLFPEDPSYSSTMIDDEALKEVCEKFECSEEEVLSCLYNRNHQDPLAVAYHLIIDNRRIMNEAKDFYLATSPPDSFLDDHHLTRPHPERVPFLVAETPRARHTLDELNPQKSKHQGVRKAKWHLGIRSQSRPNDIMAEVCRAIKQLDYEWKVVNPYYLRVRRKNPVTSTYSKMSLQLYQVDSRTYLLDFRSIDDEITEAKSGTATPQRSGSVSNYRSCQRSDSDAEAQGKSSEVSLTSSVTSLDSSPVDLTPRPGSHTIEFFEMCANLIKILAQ
Mitogen-activated protein kinase kinase kinase 2 (Homo sapiens), sequence (Q9Y2U5 whole entry): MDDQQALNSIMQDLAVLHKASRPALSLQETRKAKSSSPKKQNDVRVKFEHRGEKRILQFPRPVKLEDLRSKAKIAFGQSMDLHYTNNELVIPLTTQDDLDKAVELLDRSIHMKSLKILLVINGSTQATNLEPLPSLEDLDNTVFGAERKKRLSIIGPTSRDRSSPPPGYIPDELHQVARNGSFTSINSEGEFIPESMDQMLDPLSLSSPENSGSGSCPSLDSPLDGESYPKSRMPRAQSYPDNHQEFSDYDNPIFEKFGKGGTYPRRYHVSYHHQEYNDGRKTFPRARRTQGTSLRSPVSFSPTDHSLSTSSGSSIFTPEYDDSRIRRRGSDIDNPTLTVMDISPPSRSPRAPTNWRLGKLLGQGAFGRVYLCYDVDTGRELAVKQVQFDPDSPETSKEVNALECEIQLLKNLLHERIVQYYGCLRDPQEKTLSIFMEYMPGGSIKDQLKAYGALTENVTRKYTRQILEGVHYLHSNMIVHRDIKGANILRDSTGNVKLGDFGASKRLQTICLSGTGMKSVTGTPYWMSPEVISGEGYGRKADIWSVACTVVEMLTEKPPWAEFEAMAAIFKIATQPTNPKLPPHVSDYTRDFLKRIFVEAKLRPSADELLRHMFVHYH
Phosphatidylinositol 5-phosphate 4-kinase type-2 gamma (Homo sapiens), sequence (Q8TBX8 whole entry): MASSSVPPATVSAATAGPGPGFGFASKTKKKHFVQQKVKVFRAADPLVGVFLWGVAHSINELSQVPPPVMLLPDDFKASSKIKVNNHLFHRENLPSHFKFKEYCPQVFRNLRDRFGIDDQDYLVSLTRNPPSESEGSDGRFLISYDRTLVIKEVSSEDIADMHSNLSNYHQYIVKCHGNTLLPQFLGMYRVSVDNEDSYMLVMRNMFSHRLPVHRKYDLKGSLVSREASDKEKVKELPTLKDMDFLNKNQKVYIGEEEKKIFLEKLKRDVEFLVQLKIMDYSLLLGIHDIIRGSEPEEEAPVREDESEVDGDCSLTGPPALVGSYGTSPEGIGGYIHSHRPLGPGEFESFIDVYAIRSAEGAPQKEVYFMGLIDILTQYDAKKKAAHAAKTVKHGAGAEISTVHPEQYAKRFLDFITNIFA
Ribosomal protein S6 kinase alpha-2 (Homo sapiens), sequence (Q15349 whole entry, the tested form may be a part): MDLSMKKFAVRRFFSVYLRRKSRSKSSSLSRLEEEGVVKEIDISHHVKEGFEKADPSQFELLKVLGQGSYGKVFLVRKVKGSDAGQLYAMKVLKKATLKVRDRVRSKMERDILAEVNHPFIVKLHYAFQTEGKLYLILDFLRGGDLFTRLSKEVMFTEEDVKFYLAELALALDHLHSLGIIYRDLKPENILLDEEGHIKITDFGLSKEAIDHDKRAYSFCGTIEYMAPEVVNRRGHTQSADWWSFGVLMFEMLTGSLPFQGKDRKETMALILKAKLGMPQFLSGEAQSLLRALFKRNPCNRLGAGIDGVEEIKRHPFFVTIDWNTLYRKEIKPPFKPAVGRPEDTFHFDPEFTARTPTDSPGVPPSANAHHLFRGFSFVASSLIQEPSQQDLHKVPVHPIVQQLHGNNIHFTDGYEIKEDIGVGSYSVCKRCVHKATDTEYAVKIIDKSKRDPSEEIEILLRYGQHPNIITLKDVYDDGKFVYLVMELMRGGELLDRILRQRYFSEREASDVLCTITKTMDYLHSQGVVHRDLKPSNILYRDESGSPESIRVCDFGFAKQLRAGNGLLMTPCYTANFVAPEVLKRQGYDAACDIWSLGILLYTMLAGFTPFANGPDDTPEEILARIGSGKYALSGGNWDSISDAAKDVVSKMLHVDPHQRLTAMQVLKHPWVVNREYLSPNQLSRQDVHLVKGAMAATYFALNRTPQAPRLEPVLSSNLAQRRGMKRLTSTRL
Serine/threonine-protein kinase Nek4 (Homo sapiens), sequence (P51957 whole entry, looked up): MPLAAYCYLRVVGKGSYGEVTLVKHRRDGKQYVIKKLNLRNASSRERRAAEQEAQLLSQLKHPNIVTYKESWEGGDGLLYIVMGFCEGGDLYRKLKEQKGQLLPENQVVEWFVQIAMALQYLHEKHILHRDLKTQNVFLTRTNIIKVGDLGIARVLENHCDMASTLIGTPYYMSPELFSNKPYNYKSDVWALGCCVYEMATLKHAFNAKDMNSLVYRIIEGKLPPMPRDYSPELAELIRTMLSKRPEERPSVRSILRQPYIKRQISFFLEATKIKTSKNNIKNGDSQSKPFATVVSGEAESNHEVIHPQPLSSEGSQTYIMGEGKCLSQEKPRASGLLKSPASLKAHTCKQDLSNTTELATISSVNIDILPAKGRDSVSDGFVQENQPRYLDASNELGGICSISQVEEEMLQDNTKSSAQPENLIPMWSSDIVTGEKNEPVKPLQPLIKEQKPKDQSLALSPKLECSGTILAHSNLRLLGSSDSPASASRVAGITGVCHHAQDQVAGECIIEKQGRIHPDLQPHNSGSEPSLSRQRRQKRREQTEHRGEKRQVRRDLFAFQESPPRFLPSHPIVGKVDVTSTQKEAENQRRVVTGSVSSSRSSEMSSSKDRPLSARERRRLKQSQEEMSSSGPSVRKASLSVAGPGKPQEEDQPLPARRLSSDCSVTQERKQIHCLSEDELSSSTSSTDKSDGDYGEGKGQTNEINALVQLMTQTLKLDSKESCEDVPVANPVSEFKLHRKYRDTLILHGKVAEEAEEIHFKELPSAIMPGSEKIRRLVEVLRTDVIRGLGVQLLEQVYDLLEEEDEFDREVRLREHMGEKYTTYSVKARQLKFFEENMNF
Mitogen-activated protein kinase 12 (Homo sapiens), sequence (P53778 whole entry): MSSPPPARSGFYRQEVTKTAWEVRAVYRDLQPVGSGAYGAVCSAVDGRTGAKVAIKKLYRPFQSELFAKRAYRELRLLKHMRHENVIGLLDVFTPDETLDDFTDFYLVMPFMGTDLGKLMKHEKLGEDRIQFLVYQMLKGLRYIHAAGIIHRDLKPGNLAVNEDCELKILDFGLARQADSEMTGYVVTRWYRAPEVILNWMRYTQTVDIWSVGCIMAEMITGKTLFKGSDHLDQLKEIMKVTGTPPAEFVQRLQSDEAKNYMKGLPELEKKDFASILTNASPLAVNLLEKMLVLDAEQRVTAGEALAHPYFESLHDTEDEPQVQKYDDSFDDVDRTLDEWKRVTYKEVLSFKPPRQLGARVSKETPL
Tyrosine-protein kinase Fgr (Homo sapiens), sequence (P09769 2-529 limits assumed): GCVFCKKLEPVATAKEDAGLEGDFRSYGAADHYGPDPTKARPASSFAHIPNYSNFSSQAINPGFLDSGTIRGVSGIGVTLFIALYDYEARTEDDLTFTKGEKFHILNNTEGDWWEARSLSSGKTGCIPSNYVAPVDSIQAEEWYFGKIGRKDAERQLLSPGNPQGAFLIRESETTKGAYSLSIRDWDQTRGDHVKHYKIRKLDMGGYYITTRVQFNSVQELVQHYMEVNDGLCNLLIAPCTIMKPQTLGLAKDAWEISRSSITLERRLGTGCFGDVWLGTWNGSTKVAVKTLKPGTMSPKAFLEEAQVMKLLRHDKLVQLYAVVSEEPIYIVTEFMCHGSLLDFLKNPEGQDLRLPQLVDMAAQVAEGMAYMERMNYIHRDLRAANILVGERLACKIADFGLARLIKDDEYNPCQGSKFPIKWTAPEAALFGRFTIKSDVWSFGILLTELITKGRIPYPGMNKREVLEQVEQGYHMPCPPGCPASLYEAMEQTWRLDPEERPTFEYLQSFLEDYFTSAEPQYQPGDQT
PAN2-PAN3 deadenylation complex subunit PAN3 (Homo sapiens), sequence (Q58A45 whole entry, the tested form may be a part, one chain of several): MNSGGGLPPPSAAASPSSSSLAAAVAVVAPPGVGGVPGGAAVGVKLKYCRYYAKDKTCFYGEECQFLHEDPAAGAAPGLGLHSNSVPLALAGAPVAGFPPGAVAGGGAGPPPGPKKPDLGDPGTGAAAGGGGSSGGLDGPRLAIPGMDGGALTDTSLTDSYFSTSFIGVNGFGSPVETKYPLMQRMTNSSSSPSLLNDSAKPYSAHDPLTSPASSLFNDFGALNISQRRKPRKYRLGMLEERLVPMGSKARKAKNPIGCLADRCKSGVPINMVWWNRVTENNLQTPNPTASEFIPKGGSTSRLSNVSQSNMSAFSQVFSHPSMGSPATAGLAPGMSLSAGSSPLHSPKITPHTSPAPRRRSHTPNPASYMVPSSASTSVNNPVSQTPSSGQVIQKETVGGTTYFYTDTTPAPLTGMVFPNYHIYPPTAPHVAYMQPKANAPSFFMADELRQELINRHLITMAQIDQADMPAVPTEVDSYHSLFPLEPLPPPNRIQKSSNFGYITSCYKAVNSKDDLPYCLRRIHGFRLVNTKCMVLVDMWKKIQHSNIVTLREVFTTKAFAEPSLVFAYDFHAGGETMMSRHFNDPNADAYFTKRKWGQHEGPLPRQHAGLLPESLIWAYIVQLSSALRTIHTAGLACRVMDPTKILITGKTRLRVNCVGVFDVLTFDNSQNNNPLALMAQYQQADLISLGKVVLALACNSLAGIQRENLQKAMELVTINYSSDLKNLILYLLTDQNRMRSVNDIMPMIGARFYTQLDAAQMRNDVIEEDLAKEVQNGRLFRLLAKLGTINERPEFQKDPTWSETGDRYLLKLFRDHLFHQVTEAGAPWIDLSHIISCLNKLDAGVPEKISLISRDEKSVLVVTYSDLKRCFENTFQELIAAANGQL

Question: Which inhibition [1] does the source give for `CC(C)n1cc(-c2cc(-c3ccc(CN4CCOCC4)cc3)cnc2N)nn1` here?
Answer: 5.6%

Question: What about the solubility [2] of the same compound?
Answer: 36 µg/mL (≈ 95.1 µM)

Question: And the inhibition [3]?
Answer: -7.4%

Question: What about the inhibition [4] of the same compound?
Answer: 29.2%

Question: And the inhibition [5]?
Answer: 7.7%

Question: And the inhibition [6]?
Answer: -9.8%

Question: What about the inhibition [7] of the same compound?
Answer: 34.8%

Question: And the inhibition [8]?
Answer: 13.1%

Question: What about the inhibition [9] of the same compound?
Answer: 13%

Question: And the inhibition [10]?
Answer: -9.2%

Question: And the inhibition [11]?
Answer: 8.7%

Question: And the inhibition [12]?
Answer: -5.2%

Question: And the inhibition [13]?
Answer: 1.5%

Question: What about the inhibition [14] of the same compound?
Answer: 26.4%

Question: What about the inhibition [15] of the same compound?
Answer: 23.2%

Question: What about the inhibition [16] of the same compound?
Answer: 6.1%

Question: What about the inhibition [17] of the same compound?
Answer: 0.1%

Question: What about the inhibition [18] of the same compound?
Answer: 5.5%

Question: And the inhibition [19]?
Answer: -7.5%

Question: And the inhibition [20]?
Answer: 9.6%

Question: And the inhibition [21]?
Answer: 12.5%

Question: What about the inhibition [22] of the same compound?
Answer: -2.1%

Question: And the inhibition [23]?
Answer: -4.4%

Question: What about the inhibition [24] of the same compound?
Answer: -3.3%

Question: What about the inhibition [25] of the same compound?
Answer: -8.1%

Question: And the inhibition [26]?
Answer: 26.2%

Question: And the inhibition [27]?
Answer: -8.4%

Question: And the inhibition [28]?
Answer: 11.3%
